Assay results published in patent US20150141367A1, “MODULATION OF GROWTH OF BIFIDOBACTERIA USING A COMBINATION OF OLIGOSACCHARIDES FOUND IN HUMAN MILK” (NESTEC S.A., priority 2011, published 2015).

Key:
[1] = tested on: Bifidobacterium Infantis ATCC 15697; assay: Growth of bifidobacteria in RCM without glucose, optical density at 595 nm over 30 hours; assay type: cell-based; details: for growth in wells containing the test ingredient vs control medium: abs 595 nm; for effect on the growth of Bifidobacterium infantis (summary statement): summary in description
Description: (§1) Reinforced Clostridia Medium (RCM) was used for cultivating the bifidobacteria. RCM without glucose was used as a control medium. RCM is a well-known medium for cultivating and enumerating anaerobes, which was first formulated by Hirsch and Grinstead, J. Dairy Res., 21:101 (1954). The test ingredients were 2′-fucosyllactose, 6′-sialyllactose and 3′-sialyllactose dissolved in the control medium at the following concentrations: 1 mg/ml 2′-fucosyllactose; 1 mg/ml 6′-sialyllactose; and, 2 mg/ml 3′-sialyllactose. The bifidobacteria were separately grown overnight anaerobically in RCM, and were then measured and diluted to an optical density of 0.1 as measured by absorbance spectroscopy at 595 nm, and were then further diluted ten-fold to make a working stock. For each test, 50 μl of working stock was added to each well of a 96 well plate containing either 200 μl of control medium (48 wells) or 200 μl test ingredient solution (48 wells). The plate was grown anaerobically for 30 hours and optical density was read at abs 595 nm every 15 minutes. The values for like wells were averaged and plotted over time (FIGS. 1, 3, and 5-7), and the area under the curve (AUC) was calculated over the 30-hour period (FIGS. 2 and 4).

[2] = tested on: Bifidobacterium Breve ATCC 15700; assay: as above; assay type: cell-based
Description: as §1

| Compound | growth in wells containing the test ingredient vs control medium ([1]; 2 mg/ml 3′-sialyllactose, after grown for 8 hours, FIG. 7) | effect on the growth of Bifidobacterium infantis (summary statement) [1] | growth in wells containing the test ingredient vs control medium ([2]; 2 mg/ml 3′-sialyllactose, after grown for 6 hours, abs 595 nm, FIG. 6) | effect on the growth of Bifidobacterium breve (summary statement) ([2]; summary in description) | growth in wells containing the test ingredient vs control medium ([1]; 1 mg/ml 6′-sialyllactose, after grown for 12 hours, FIG. 5) |
| --- | --- | --- | --- | --- | --- |
| CC(=O)N[C@H]1[C@H]([C@H](O)[C@H](O)CO)O[C@@](O[C@H]2[C@@H](O)[C@@H](CO)O[C@@H](O[C@H]3[C@H](O)[C@@H](O)C(O)O[C@@H]3CO)[C@@H]2O)(C(=O)O)C[C@@H]1O (stereo partly drawn) [3′-sialyllactose] | significantly greater | stimulates the growth | significantly greater | stimulates the growth | – |
| CC(=O)N[C@H]1[C@H]([C@H](O)[C@H](O)CO)O[C@@](OC[C@H]2O[C@@H](O[C@H]3[C@H](O)[C@@H](O)[C@H](O)O[C@@H]3CO)[C@H](O)[C@@H](O)[C@H]2O)(C(=O)O)C[C@@H]1O [6′-sialyllactose] | – | stimulates the growth | – | – | significantly greater |
